ChEMBL document CHEMBL1134819, “Design and synthesis of potent and selective inhibitors of integrin VLA-4” (Bioorg Med Chem Lett, 2001)

Key:
Integrin alpha-4/beta-1 [1] = molecular target: T1, Integrin alpha-4/beta-1 (Homo sapiens, UniProt P05556+P13612); test: In vitro Very late antigen 4 cell adhesion inhibitory activity measured by binding of fluorescently labeled Ramos cells to immobilized VCAM-1.; type: cell-based
[2] = Inhibition of fluorescent Ramos cell adhesion to ICAM-1 by mouse Mac-1 integrin; type: functional, cell-based
[3] = molecular target: Integrin alpha-4/beta-1, Rattus norvegicus; test: Inhibition of fluorescent Ramos cell adhesion to VCAM-1 by rat Very late antigen 4 (VLA-4) integrin
Integrin alpha-5/beta-1 = Integrin alpha-5/beta-1 (Homo sapiens, UniProt P05556+P08648); test: Inhibition of fluorescent Ramos cell adhesion to fibronectin by Very late antigen 5 (VLA-5); type: functional, cell-based
Integrin alpha-5/beta-1, sequence (P05556 21-798 limits assumed): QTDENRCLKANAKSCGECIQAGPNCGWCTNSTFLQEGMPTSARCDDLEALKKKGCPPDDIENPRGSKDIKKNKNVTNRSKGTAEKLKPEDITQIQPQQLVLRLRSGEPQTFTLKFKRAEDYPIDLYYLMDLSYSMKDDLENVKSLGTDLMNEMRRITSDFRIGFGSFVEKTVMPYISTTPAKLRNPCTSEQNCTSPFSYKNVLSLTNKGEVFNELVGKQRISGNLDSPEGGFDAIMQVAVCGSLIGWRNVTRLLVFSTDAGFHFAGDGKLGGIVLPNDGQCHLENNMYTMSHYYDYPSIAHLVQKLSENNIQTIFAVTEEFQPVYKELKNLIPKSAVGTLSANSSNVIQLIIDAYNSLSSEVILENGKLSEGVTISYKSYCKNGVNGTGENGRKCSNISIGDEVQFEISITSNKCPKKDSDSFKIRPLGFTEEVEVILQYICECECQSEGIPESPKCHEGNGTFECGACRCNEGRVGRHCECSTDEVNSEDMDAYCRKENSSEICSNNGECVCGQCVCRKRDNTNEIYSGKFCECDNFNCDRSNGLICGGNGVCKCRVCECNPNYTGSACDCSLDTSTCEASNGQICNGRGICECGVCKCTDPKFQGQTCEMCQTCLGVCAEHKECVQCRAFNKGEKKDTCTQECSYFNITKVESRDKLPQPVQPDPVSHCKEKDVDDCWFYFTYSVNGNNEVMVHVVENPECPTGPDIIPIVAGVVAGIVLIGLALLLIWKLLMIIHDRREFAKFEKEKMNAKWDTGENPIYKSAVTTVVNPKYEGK
Integrin alpha-5/beta-1, sequence (P08648 42-894 limits assumed): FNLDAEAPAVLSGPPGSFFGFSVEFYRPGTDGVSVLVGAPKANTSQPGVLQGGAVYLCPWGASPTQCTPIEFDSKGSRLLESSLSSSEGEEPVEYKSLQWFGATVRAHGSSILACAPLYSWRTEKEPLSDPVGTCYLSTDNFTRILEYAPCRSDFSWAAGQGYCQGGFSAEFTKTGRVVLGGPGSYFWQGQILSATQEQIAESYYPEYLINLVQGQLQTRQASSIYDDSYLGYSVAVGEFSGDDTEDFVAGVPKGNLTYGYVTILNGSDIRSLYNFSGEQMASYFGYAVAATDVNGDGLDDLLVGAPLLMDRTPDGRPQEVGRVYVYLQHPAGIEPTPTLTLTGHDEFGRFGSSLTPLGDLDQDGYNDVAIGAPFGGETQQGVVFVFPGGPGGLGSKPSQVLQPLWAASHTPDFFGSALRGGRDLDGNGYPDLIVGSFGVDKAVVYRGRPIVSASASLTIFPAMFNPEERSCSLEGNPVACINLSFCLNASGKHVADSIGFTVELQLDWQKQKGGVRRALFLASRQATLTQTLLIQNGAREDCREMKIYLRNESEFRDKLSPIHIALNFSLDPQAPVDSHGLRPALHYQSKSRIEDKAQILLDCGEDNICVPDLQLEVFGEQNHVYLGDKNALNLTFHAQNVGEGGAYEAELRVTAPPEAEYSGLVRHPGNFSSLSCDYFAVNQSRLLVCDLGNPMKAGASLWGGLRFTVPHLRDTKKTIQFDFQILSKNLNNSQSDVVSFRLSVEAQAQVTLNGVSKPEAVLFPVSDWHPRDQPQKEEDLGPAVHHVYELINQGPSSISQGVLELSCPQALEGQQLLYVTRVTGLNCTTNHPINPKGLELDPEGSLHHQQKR
Integrin alpha-5/beta-1, sequence (P08648 895-1049 limits assumed): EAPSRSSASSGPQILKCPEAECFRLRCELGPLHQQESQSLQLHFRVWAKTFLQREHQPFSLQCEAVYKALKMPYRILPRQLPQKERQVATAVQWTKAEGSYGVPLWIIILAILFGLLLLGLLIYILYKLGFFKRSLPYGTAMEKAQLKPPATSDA

[4] = molecular target: Integrin alpha-4/beta-1, Mus musculus; test: Inhibition of fluorescent Ramos cell adhesion to VCAM-1 by mouse Very late antigen 4 (VLA-4) integrin
[5] = Inhibition of fluorescent Ramos cell adhesion to vitronectin by alpha-V-beta-3-alphaV/beta-5 integrins; type: functional, cell-based, Homo sapiens
Integrin alpha-4/beta-7 [6] = molecular target: T2, Integrin alpha-4/beta-7 (Homo sapiens, UniProt P13612+P26010); test: (§1) Inhibition of fluorescent Ramos cell adhesion to VCAM-1 by alpha4-beta7 integrin; type: cell-based
T2 sequence (P13612 whole entry): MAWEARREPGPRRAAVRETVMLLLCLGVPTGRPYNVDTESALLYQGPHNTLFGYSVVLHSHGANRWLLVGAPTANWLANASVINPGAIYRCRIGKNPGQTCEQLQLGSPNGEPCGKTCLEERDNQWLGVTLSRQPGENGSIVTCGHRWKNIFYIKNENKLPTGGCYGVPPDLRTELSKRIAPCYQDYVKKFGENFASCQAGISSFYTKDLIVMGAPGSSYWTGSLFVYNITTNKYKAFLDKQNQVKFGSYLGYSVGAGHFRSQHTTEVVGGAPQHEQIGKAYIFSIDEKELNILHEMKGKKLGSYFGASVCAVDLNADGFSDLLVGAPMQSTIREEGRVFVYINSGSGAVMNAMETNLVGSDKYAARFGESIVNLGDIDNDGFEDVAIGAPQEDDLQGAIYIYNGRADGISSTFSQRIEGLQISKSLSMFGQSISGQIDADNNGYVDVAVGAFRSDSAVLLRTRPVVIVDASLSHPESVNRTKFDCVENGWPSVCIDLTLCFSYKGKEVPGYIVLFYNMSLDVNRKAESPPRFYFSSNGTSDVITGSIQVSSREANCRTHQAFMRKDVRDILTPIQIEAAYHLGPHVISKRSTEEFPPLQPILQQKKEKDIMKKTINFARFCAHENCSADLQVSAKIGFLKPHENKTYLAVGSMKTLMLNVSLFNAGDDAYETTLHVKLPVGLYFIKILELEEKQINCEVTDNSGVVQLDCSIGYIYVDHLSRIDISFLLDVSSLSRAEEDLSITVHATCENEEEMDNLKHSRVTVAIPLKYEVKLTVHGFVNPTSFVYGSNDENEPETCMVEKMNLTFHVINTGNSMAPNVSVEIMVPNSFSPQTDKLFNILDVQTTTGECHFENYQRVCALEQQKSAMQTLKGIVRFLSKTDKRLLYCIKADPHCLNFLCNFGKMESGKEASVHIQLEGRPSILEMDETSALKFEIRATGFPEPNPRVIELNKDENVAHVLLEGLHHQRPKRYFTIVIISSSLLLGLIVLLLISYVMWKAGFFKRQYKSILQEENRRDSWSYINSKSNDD
T2 sequence (P26010 whole entry): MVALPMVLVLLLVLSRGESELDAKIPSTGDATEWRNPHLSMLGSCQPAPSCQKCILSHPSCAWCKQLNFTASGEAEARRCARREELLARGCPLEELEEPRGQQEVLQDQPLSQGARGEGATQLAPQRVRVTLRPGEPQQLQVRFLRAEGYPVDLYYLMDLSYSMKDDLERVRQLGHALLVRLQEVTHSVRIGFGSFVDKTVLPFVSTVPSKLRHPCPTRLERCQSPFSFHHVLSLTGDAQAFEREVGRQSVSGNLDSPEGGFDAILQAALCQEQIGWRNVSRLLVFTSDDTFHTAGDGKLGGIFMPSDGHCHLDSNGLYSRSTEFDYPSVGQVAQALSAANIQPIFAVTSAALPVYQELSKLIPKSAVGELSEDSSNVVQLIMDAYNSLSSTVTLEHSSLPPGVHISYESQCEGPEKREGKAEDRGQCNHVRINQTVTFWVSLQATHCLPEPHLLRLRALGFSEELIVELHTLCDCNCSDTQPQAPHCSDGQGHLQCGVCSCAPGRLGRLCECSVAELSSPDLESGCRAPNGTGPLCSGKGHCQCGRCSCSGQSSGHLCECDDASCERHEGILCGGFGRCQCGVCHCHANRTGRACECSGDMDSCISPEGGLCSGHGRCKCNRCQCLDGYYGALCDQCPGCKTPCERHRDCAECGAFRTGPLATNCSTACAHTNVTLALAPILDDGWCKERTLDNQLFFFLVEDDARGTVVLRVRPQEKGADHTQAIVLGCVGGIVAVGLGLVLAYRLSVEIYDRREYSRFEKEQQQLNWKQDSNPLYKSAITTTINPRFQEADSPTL

Integrin alpha-4/beta-1 [7] = molecular target: T1, Integrin alpha-4/beta-1; test: Inhibition of fluorescent Ramos cell adhesion to fibronectin by Very late antigen 4 (VLA-4); type: cell-based
Integrin alpha-4/beta-7 [8] = molecular target: T2, Integrin alpha-4/beta-7; test: as §1; type: protein-complex assay
[9] = molecular target: Integrin alpha-4/beta-1, Mus musculus; test: Inhibition of fluorescent Ramos cell adhesion to VCAM-1 by mouse Very late antigen 4 (VLA-4) integrin; remark: listed apart in the source

T1 sequence (P05556 whole entry, one chain of several): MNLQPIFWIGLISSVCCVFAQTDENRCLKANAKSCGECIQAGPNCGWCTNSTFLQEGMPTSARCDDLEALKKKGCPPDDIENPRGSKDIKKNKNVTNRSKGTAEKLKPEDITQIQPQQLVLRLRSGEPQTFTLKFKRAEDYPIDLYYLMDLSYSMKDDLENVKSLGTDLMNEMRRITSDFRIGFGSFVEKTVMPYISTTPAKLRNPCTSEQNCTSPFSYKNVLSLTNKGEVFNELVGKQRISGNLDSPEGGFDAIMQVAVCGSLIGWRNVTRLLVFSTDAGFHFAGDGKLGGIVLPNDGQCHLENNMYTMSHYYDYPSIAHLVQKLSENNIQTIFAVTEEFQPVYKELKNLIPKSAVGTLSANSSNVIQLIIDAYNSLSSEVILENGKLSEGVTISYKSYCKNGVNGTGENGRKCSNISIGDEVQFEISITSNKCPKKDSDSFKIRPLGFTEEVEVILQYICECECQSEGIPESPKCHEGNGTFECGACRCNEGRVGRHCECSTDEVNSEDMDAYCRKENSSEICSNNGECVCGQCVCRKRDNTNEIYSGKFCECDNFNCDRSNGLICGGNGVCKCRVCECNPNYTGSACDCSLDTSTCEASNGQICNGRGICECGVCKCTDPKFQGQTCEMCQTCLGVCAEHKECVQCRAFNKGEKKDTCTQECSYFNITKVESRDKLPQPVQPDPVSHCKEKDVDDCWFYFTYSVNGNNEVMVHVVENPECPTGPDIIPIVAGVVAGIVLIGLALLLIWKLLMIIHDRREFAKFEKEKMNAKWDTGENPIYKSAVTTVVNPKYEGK

Structure (SMILES): C=CCN(CC(=O)O)NC(=O)[C@@H](CC(C)C)NC(=O)Cc1ccc(NC(=O)Nc2ccccc2C)cc1
- IC50 (Integrin alpha-4/beta-1 [1]): 11000 nM

Structure (SMILES): C=CC[C@H](CC(=O)O)NC(=O)[C@H](CC(C)C)NC(=O)Cc1ccc(NC(=O)Nc2ccccc2C)cc1
- IC50 (Integrin alpha-4/beta-1 [1]): 16.5 nM

Structure (SMILES): Cc1ccccc1NC(=O)Nc1ccc(CC(=O)NN(CC(C)C)C(=O)NC(CC(=O)O)c2ccccc2)cc1 (centres undefined)
- IC50 (Integrin alpha-4/beta-1 [1]): 2900 nM

Structure (SMILES): C/C=C/[C@H](CC(=O)O)NC(=O)CN(CCC(C)C)C(=O)Cc1ccc(NC(=O)Nc2ccccc2C)cc1
- IC50 (Integrin alpha-4/beta-1 [1]): 45 nM

Structure (SMILES): Cc1ccccc1NC(=O)Nc1ccc(CC(=O)N[C@H](CC(=O)N[C@@H](C(=O)O)c2ccccc2)CC(C)C)cc1
- IC50 (Integrin alpha-4/beta-1 [1]): 6400 nM

Structure (SMILES): COc1ccc([C@H](CC(=O)O)NC(=O)CN(CCC(C)C)C(=O)Cc2ccc(NC(=O)Nc3ccccc3C)cc2)cc1OC
- IC50 (Integrin alpha-4/beta-1 [1]): 20 nM

Structure (SMILES): Cc1ccccc1NC(=O)Nc1ccc(CC(=O)N[C@H](CC(C)C)C(=O)N(CCC(=O)O)CCc2ccccc2)cc1
- IC50 (Integrin alpha-4/beta-1 [1]): 37000 nM

Structure (SMILES): Cc1ccccc1NC(=O)Nc1ccc(CC(=O)N[C@H](CC(=O)N(CC(=O)O)Cc2ccccc2)CC(C)C)cc1
- IC50 (Integrin alpha-4/beta-1 [1]): 247000 nM

Structure (SMILES): Cc1ccccc1NC(=O)Nc1ccc(CC(=O)N[C@@H](CC(C)C)C(=O)N[C@@H](CC(=O)O)c2ccc3c(c2)OCO3)cc1
- IC50 (Integrin alpha-4/beta-1 [1]): 3 nM

Structure (SMILES): COCCCN(CC(=O)N[C@@H](CC(=O)O)c1ccc(OC)cc1)C(=O)Cc1ccc(NC(=O)Nc2ccccc2C)cc1
- IC50 [2]: > 500 µM
- IC50 [3]: 27.2 nM
- IC50 (Integrin alpha-5/beta-1): > 500 µM
- IC50 (Integrin alpha-4/beta-1 [1]): 4.7 nM
- IC50 [4]: 51.9 nM
- IC50 [5]: > 100 µM
- IC50 (Integrin alpha-4/beta-7 [6]): 6.14 µM
- IC50 (Integrin alpha-4/beta-1 [7]): 36 nM

Structure (SMILES): C/C=C/[C@H](CC(=O)O)NC(=O)CN(CCCOC)C(=O)Cc1ccc(NC(=O)Nc2ccccc2C)cc1
- IC50 (Integrin alpha-4/beta-7 [8]): > 100 µM
- IC50 [2]: > 500 µM
- IC50 [3]: 20.5 nM
- IC50 (Integrin alpha-5/beta-1): > 500 µM
- IC50 (Integrin alpha-4/beta-1 [1]): 15.4 nM
- IC50 [5]: 59 µM
- IC50 [9]: 7.7 nM
- IC50 (Integrin alpha-4/beta-1 [7]): 7.9 nM

Structure (SMILES): C/C=C/[C@@H](CC(=O)O)NC(=O)C[C@@H](CC(C)C)NC(=O)Cc1ccc(NC(=O)Nc2ccccc2C)cc1
- IC50 (Integrin alpha-4/beta-1 [1]): 103000 nM

Structure (SMILES): Cc1ccccc1NC(=O)Nc1ccc(CC(=O)N[C@H](CC(=O)N[C@@H](CC(=O)O)c2ccccc2)CC(C)C)cc1
- IC50 (Integrin alpha-4/beta-1 [1]): 7300 nM

Structure (SMILES): C=CCC(CC(=O)O)NC(=O)N(CC(C)C)NC(=O)Cc1ccc(NC(=O)Nc2ccccc2C)cc1 (centres undefined)
- IC50 (Integrin alpha-4/beta-1 [1]): 5900 nM

Structure (SMILES): COCCCN(CC(=O)N[C@@H](CC(=O)O)c1ccc(OC)c(OC)c1)C(=O)Cc1ccc(NC(=O)Nc2ccccc2C)cc1
- IC50 (Integrin alpha-4/beta-7 [8]): > 100 µM
- IC50 [2]: > 500 µM
- IC50 [3]: 21.6 nM
- IC50 (Integrin alpha-5/beta-1): > 500 µM
- IC50 (Integrin alpha-4/beta-1 [1]): 7.1 nM
- IC50 [4]: 27.3 nM
- IC50 [5]: > 100 µM
- IC50 (Integrin alpha-4/beta-1 [7]): 13.4 nM

Structure (SMILES): Cc1ccccc1NC(=O)Nc1ccc(CC(=O)N(CCC(C)C)CC(=O)N[C@@H](CC(=O)O)c2ccccc2)cc1
- IC50 (Integrin alpha-4/beta-1 [1]): 29 nM

Structure (SMILES): CCOC(=O)C[C@H](NC(=O)CN(CCCOC)C(=O)Cc1ccc(NC(=O)Nc2ccccc2C)cc1)c1ccc(OC)cc1
- IC50 (Integrin alpha-4/beta-1 [1]): 75000 nM

Structure (SMILES): COCCCCN(CC(=O)N[C@@H](CC(=O)O)c1ccc(OC)c(OC)c1)C(=O)Cc1ccc(NC(=O)Nc2ccccc2C)cc1
- IC50 (Integrin alpha-4/beta-1 [1]): 1.3 nM

Structure (SMILES): COCCCN(CC(=O)N[C@@H](CC(=O)O)c1ccccc1)C(=O)Cc1ccc(NC(=O)Nc2ccccc2C)cc1
- IC50 (Integrin alpha-4/beta-7 [8]): > 100 µM
- IC50 [2]: > 500 µM
- IC50 [3]: 24.5 nM
- IC50 (Integrin alpha-5/beta-1): > 500 µM
- IC50 (Integrin alpha-4/beta-1 [1]): 11.7 nM
- IC50 [4]: 21.7 nM
- IC50 [5]: > 100 µM
- IC50 (Integrin alpha-4/beta-1 [7]): 14.4 nM

Structure (SMILES): Cc1ccccc1NC(=O)Nc1ccc(CC(=O)N[C@@H](CC(=O)N[C@@H](CC(=O)O)c2ccccc2)CC(C)C)cc1
- IC50 (Integrin alpha-4/beta-1 [1]): 262000 nM

Structure (SMILES): Cc1ccccc1NC(=O)Nc1ccc(CC(=O)N(CCC(C)C)CC(=O)N(CCC(=O)O)CCc2ccccc2)cc1
- IC50 (Integrin alpha-4/beta-1 [1]): 98 nM
